Test results reported in paper PMC9025336 (Antibiotics, 2022).
Peptide text beside a SMILES is read from it. * marks the point of attachment. Orn(α-tetramethylguanidino) = CN(C)C(=N[C@@H](CCCN)C(=O)*)N(C)C

Key:
[1] = system: E. coli Rosetta; experiment: Uptake of cf-labeled PrAMPs; type: cell-based, Escherichia coli
Protocol: Bacteria were grown in 25% MHBII medium overnight, diluted fourfold with fresh medium, and incubated to obtain an OD600 of ~1. The cultures were adjusted to an OD600 of 1, and cf-labeled peptide was added to achieve a final concentration of 23 µmol/L (~64 µg/mL). After 0 min, 90 min, and 180 min, two aliquots (300 µL) of the culture were transferred to two tubes. One tube was immediately stored on ice in the dark. The second sample was centrifuged (10,000× g, 4 °C, 3 min), and the supernatant was transferred to a fresh tube and stored on ice in the dark. The pellet was washed with ice cold PBS (300 µL) and centrifuged (10,000× g, 4 °C, 3 min), and the supernatant was transferred into a fresh tube. Both the supernatant and the pellet resuspended in 300 µL ice cold PBS were stored on ice in the dark. After 180 min, an aliquot of the unprocessed sample (100 µL) was transferred to a translucent 96-well plate, and the absorbance was measured at 600 nm. Aliquots (100 µL) of the original cell culture, supernatants, wash solutions, and resuspended pellets were transferred into black 96-well plates to measure the fluorescence in a PARADIGM^TM microplate reader in the top read position (λexc = 485 nm, λem = 535 nm). Experiments were performed three times on different days. The relative fluorescence units were normalized to the measured OD600 values of the cell culture.

[2] = system: 70S ribosome extract of E. coli BW25113; experiment: Fluorescence polarization, Kd of cf-labeled peptides; type: binding, Escherichia coli; conditions: determined for the cf-labeled peptide; BW25113 ribosome extract; 28 °C, 90 min; 95% confidence interval in brackets; triplicate on at least two days; read-out: Kd, BW
Protocol: (§1) E. coli BW25113 and E. coli Rosetta pLysS were cultivated in LB medium and harvested at an OD600 of ~4 by centrifugation (5000× g, 30 min, 4 °C). The cell pellets were washed by resuspension in ribosome preparation buffer (20 mmol/L Hepes-KOH, 6 mmol/L MgCl2, 30 mmol/L NH4Cl, pH 7.6, 4°C) and subsequent centrifugation (5000× g, 30 min, 4 °C). Cell pellets were suspended in ribosome preparation buffer ([…]) containing freshly added 2-mercapotethanol (4 mmol/L). Lysozyme was added to the resuspended cells and incubated on ice for 30 min. The cell suspension was disrupted six times using a FastPrep-24^TM 5G instrument (MP Biomedicals, Solon, OH, USA) with BigPrep 50 mL setting (40 s, 4.0 m/s), incubated with DNase I (5 mL/L) on ice for one hour and centrifuged (16,000× g, 30 min, 4 °C). The cell debris was removed from the supernatant by centrifugation (32,000× g, 60 min, 4 °C), and the supernatant was centrifuged again (165,000× g, 17 h, 4 °C). The pellet was resuspended in ribosome preparation buffer (0.1 mL per g cell pellet) to obtain the 70S ribosome extract and stored at −80 °C. The ribosome concentration was estimated by recording the absorbance at 260 nm (1 AU for a ribosome concentration of 28 nmol/L). The molecular weight of the 70S E. coli ribosome was assumed to be 2.3 MDa.
(§2) Kd was determined using a ribosome extract and cf-labeled peptides in ribosome preparation buffer. Briefly, black 384-well plates (flat bottom, Greiner Bio-One GmbH) were blocked with casein (0.5%, w/v) in phosphate buffer containing 0.05% (v/v) Tween 20 at 4 °C overnight and washed three times with phosphate buffer. A 2-fold dilution series of the ribosome extract (20 μL per well) in ribosome preparation buffer was prepared in a black 384-well plate (23 dilution steps). The cf-labeled peptide was dissolved in ribosome preparation buffer (20 μL, 40 nmol/L), added to each well, and incubated at 28 ± 1 °C. After 90 min, the fluorescence polarization was measured on a PARADIGMTM microplate reader (Beckman Coulter, Salzburg, Austria) in the top read position (λexc = 485 nm, λem = 535 nm) in triplicate on at least two different days. Data were fitted to a nonlinear, dose–response logistical transition equation [y= y0 + a/(1 + (x/x0)b)] using the Levenberg–Marquardt algorithm, with dissociation constants (Kd) represented by the x0 coefficients (GraphPad Prism for Windows v. 5.02, San Diego, CA, USA).

[3] = system: in vitro protein translation (GFP expression); experiment: In vitro translation assay (GFP fluorescence, PureExpress Delta RF123 kit); type: biochemical, Escherichia coli
Protocol: Next, we investigated whether Api805 inhibits protein translation in vitro by recording the fluorescence of expressed GFP (Figure 2). As Api137 inhibits protein translation by trapping release factors RF1 and RF2, the fluorescence was measured in the absence of release factor and in the presence of RF1 or RF2. We used a ribosome concentration of 2.4 µmol/L, which is ~[…] than the ribosome concentration in E. coli. […] Furthermore, RF2 of PureExpress® was isolated from an E. coli K-12 strain that carries an A246T substitution, reducing its susceptibility to apidaecin [15, 23]. The inhibition was measured for peptide concentrations of 0.05, 5, and 50 µmol/L relative to the fluorescence obtained without a PrAMP (100%).
GFP was expressed using an NEB PureExpress Delta RF123 kit (New England Biolabs, Ipswich, MA, USA). The sfGFP DNA template coding for a UAA stop codon was amplified from the pY71sfGFP plasmid by PCR using sfGFP primers (Table S3). Release factor 1 (RF1) included in the kit was 50-fold diluted (v/v) in freshly prepared 1x pure system buffer (PSB, 1 mol/L magnesium acetate, 0.5 mol/L K3PO4 (pH 7.3), 1 mol/L potassium glutamate, 1 mol/L NH4Cl, 0.5 mol/L CaCl2, 1 mol/L spermidine, 0.1 mol/L putrescine, 0.1 mol/L DTT). GFP was expressed in a freshly prepared mixture of kit solution A (2 µL), kit solution B (1.5 µL), 50-fold diluted RF1 (0.5 µL), sfGFP template (0.1325 pmol, 35 ng) or water as control (0.25 µL), PSB (0.25 µL), and PrAMP (50, 5, 0.05 or 0 µmol/L) dissolved in water (0.5 µL). The reaction mixture was transferred into a black 384-well plate (flat bottom, Greiner Bio-One GmbH), covered with a lid, and incubated in a microplate reader (Gemini EM, Molecular Devices) at 37 °C for two hours. The fluorescence was recorded every 10 min (λexc = 485 nm, λem = 535 nm).

[4] = system: 70S ribosome extract of E. coli Rosetta DE3 pLysS; experiment: Fluorescence polarization, Kd of cf-labeled peptides; type: binding, Escherichia coli; conditions: determined for the cf-labeled peptide, 28 °C, 90 min, 95% confidence interval in brackets, triplicate on at least two days, read-out: Kd, Ros
Protocol: as §1, §2

[5] = cf-labeled peptides 23 µmol/L, normalized fluorescence after 180 min
[6] = highest peptide concentration (50 µmol/L), relative to fluorescence without PrAMP, 37 °C, 2 h, twice in duplicate

Row | Structure (SMILES) | uptake in E. coli Rosetta compared with Api137 [1, 5] | Kd [2] [nM] | normalized uptake of E. coli Rosetta, in words ([1]; cf-labeled peptides 23 µmol/L, 0, 90, 180 min) | inhibition of protein translation in the absence of RF1, in words ([3]; GFP fluorescence, Figure 2) | inhibition of protein translation in the presence of RF1 [3, 6] | Kd [4] [nM] | uptake in E. coli Rosetta compared with E. coli BW25113 ([1]; cf-labeled peptide 23 µmol/L, normalized fluorescence (OD600) after 180 min) | uptake in E. coli Rosetta compared with Api88 [1, 5] | inhibition of protein translation in the absence of RF1 [3, 6]
1 | CC[C@H](C)[C@H](NC(=O)[C@H](Cc1ccc(O)cc1)NC(=O)[C@@H](NC(=O)[C@@H]1CCCN1C(=O)[C@H](CCCNC(=N)N)NC(=O)[C@H](CC(N)=O)NC(=O)[C@H](CC(N)=O)NC(=O)[C@H](CCCN)N=C(N(C)C)N(C)C)C(C)C)C(=O)N1CCC[C@H]1C(=O)N[C@@H](CCCNC(=N)N)C(=O)N1CCC[C@H]1C(=O)N[C@@H](CCCNC(=N)N)C(=O)N1CCC[C@H]1C(=O)N1CCC[C@H]1C(=O)N[C@@H](Cc1c[nH]cn1)C(=O)N1CCC[C@H]1C(=O)N[C@@H](CCCNC(=N)N)C(=O)N[C@@H](CC(C)C)C(N)=O [Api88] ({Orn(α-tetramethylguanidino)}-NNRPVYIPRPRPPHPRL-NH2) | two- to threefold higher | 906 |  |  |  |  |  |  | 
2 | CC[C@H](C)[C@H](NC(=O)[C@H](Cc1ccc(O)cc1)NC(=O)[C@@H](NC(=O)[C@@H]1CCCN1C(=O)[C@H](CCCNC(=N)N)NC(=O)[C@H](CC(N)=O)NC(=O)[C@H](CC(N)=O)NC(=O)[C@H](CCCN)N=C(N(C)C)N(C)C)C(C)C)C(=O)N1CCC[C@H]1C(=O)N[C@@H](CCCNC(=N)N)C(=O)N1CCC[C@H]1C(=O)N[C@@H](CCCNC(=N)N)C(=O)N1CCC[C@H]1C(=O)N1CCC[C@H]1C(=O)N[C@@H](Cc1c[nH]cn1)C(=O)N1CCC[C@H]1C(=O)N[C@@H](CCCNC(=N)N)C(=O)N[C@@H](CC(C)C)C(=O)O [Api137] ({Orn(α-tetramethylguanidino)}-NNRPVYIPRPRPPHPRL-OH) |  | 382 | lowest uptake | only a slight inhibition | ~ 77% | 198 |  |  | 
3 | CC[C@H](C)[C@H](NC(=O)[C@@H]1CCCN1C(=O)[C@H](CCCNC(=N)N)NC(=O)[C@H](CC(N)=O)NC(=O)[C@H](CC(N)=O)NC(=O)CN)C(=O)N[C@@H](Cc1ccc(O)cc1)C(=O)N[C@H](C(=O)N1CCC[C@H]1C(=O)N[C@@H](CCCNC(=N)N)C(=O)N1CCC[C@H]1C(=O)N[C@@H](CCCNC(=N)N)C(=O)N1CCC[C@H]1C(=O)N1CCC[C@H]1C(=O)N[C@@H](Cc1c[nH]cn1)C(=O)N1CCC[C@H]1C(=O)N[C@@H](CCCNC(=N)N)C(=O)N1CCC[C@H]1C(=O)N[C@H](C(=O)N[C@@H](CCCNC(=N)N)C(=O)N[C@H](C(=O)O)C(C)C)[C@@H](C)CC)[C@@H](C)CC [Api805] (H-GNNRPIYIPRPRPPHPRPIRV-OH; N-terminus assumed) | fivefold higher | 557 |  |  | ~ 52% | 515 | approximately threefold higher | twofold higher | ~ 38%
